Experimental data reported in patent US5070210A, “Novel ketenimines as intermediates for insecticides” (ICI Americas Inc., priority 1990, dated 1991).

Key:
Type in all cases: in vivo
[1] = tested on: Housefly [Musca domestica]; assay: Housefly insecticidal test; settings: μg per 25 female flies; mortality after 48 hours
How it was run: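 Acetone solutions (with 0.01% peanut oil) dried onto dish bottoms, then 25 female flies, 1-2 days old, caged over the residue with sugar water. Mortality scored at 48 hours; LC50 from dosage-mortality curves, in μg per 25 female flies, top level 100 μg.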

[2] = tested on: Tobacco Budworm [Heliothis virescens (Fabricius)] eggs; assay: Tobacco budworm egg test; settings: 2-day old eggs, percent in solution
How it was run: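 Paper-towel patches of 2-day-old eggs dipped in acetone solutions of compound (0.1% downward), held on larval rearing medium at 78° F. Mortality scored once all control eggs had hatched and larvae were feeding; LC50 from dosage-mortality curves, expressed as percent compound in solution.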

[3] = tested on: Cabbage Looper [Trichoplusia ni (Hubner)]; assay: Cabbage looper insecticidal test; settings: second-instar larvae, percent in solution; 3-5 days
How it was run: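 Squash cotyledons dipped 2-3 s in compound in 50-50 acetone-water, dried, then infested with 5 second-instar larvae and held at high humidity. Mortality scored after 3-5 days at concentrations from 0.1% downward. LC50 from dosage-mortality curves, expressed as percent compound in solution.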

[4] = tested on: Aster Leafhopper [Macrosteles fascifrens (Stal)]; assay: Aster leafhopper insecticidal test; settings: adults/nymphs, percent in solution; 48 hours
Procedure: The compounds in Tables 1 and 2 above were tested for insecticidal activity using the following testing procedures. LC50 values, based on the results of these tests and calculated according to dosage-mortality curves, are expressed in Table 3.
Aster Leafhopper [Macrosteles fascifrens (Stal)]
Oat seedlings (Avena sp) were grown in a commercial potting soil in cups. When the plants were approximately 10 cm tall they were thinned to three plants per cup and dipped for 2-3 seconds in 50-50 acetone-water solutions of the test compounds. When the plants had dried, a clear plastic tube was placed over them and the bottom end pressed into the cup. Ten aster leafhopper adults/nymphs were then placed in each tube and the tops of the tubes covered with white organdy cloth. Mortality counts were made after 48 hours. Test concentrations ranged from 0.05% down to that at which 50% mortality occurred. The LC50 values are expressed below in Table 3 under the heading "LH" in terms of the percent of the test compound in the solution.

[5] = tested on: Maize weevil [Sitophilus Zeamais (Motschulsky)]; assay: Maize weevil insecticidal test; settings: adult weevils, percent in solution; 48 hours
How it was run: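 LC50, in percent of compound in solution, was derived from dosage-mortality curves after 48 h at about 25 °C. Ten adult weevils per container fed on four corn seeds briefly immersed in acetone:water (50:50) solutions of up to 0.01% and dried.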

Structure (SMILES) | LC50, HF [1] | LC50, TBW, E (TBW-E) [2] | LC50, CL [3] | LC50, LH [4] | LC50, MW [5]
CC(C)CC(=Nc1cc(Cl)cc(Cl)c1)OCc1cccc(Oc2ccccc2)c1 [Compound 10] | > 100 µg | > 0.1% | 0.01% | > 0.05% | 
CC(C)C(=Nc1cc(Cl)cc(Cl)c1)OCc1cccc(Oc2ccccc2)c1 [Compound 16] | 20 µg | 0.04% | 0.004% | 0.0005% | 
CC(C)C(=Nc1cc(Cl)c(Cl)c(Cl)c1)OCc1cccc(Oc2ccccc2)c1 [Compound 20] | 64 µg | < 0.1% | 0.0025% | 0.003% | 
Fc1ccc(N=C(OCc2cccc(Oc3ccccc3)c2)C(Cl)=C(Cl)Cl)cc1 [Compound 49] | > 100 µg | > 0.05% | 0.007% | > 0.05% | 
CC(C)C(=Nc1c(F)c(F)cc(F)c1F)OCc1cccc(Oc2ccccc2)c1 [Compound 57] | > 100 µg | 0.1% | 0.004% | 0.0005% | 
COc1ccc(OC)c(N=C(OCc2cccc(Oc3ccccc3)c2)C(C)C)c1 [Compound 69] | > 100 µg | > 0.1% | 0.09% | > 0.05% | 
CC(C)C(=Nc1ccc(OC(F)(F)F)cc1)OCc1cccc(Oc2ccccc2)c1 [Compound 70] | < 100 µg | 0.01% | < 0.1% | > 0.05% | 
CC(C)C(=Nc1ccc(C(F)(F)F)c(Cl)c1)OCc1cccc(Oc2ccccc2)c1 [Compound 83] | > 100 µg | > 0.1% | 0.007% | > 0.05% | 
Cc1ccc(N=C(OCc2cccc(Oc3ccccc3)c2)C(C)C)cc1Cl [Compound 90] | > 100 µg | 0.016% | > 0.1% | 0.001% | 
COc1c(Cl)cc(N=C(OCc2cccc(Oc3ccccc3)c2)C(C)C)cc1Cl [Compound 91] | 37 µg | > 0.01% | 0.002% | 0.003% | 
CC(C)C(=Nc1c(Cl)cc([N+](=O)[O-])cc1Cl)OCc1cccc(Oc2ccccc2)c1 [Compound 92] | > 100 µg | > 0.1% | 0.015% | > 0.05% | 
Clc1ccc(N=C(OCc2cccc(Oc3ccccc3)c2)C(Cl)Cl)c2ccccc12 [Compound 98] | > 100 µg | 0.1% | 0.016% | > 0.05% | 
Cc1c(Cl)cc(N=C(OCc2cccc(Oc3ccccc3)c2)C(C)C)cc1Cl [Compound 101] | 81 µg | > 0.1% | 0.0045% | 0.0008% | 
CCOC(=O)c1cc(N=C(OCc2cccc(Oc3ccccc3)c2)C(C)C)ccc1Cl [Compound 102] | > 100 µg | > 0.1% | 0.075% | > 0.05% | 
CC(C)(Cl)C(=Nc1ccc(C#N)c(Cl)c1)OCc1cccc(Oc2ccccc2)c1 [Compound 108] | 44 µg | > 0.1% | 0.002% | > 0.01% | 
CC(C)C(=Nc1c(F)cc(F)cc1Br)OCc1cccc(Oc2ccccc2)c1 [Compound 129] | > 100 µg | > 0.1% | 0.005% | 0.01% | 
CC(C)C(=Nc1ccc(Br)cc1)OCc1cccc(Oc2ccccc2)c1 [Compound 131] | 17 µg | > 0.1% | 0.0045% | 0.005% | 
CC(C)(C)C(=Nc1ccc(Br)cc1)OCc1cccc(Oc2ccccc2)c1 [Compound 135] | > 100 µg | > 0.1% | 0.004% | > 0.05% | 
CC(C)C(=Nc1ccc(I)cc1)OCc1cccc(Oc2ccccc2)c1 [Compound 137] | 18 µg | 0.04% | 0.003% | 0.008% | 

Structure (SMILES) | LC50, HF [1] | LC50, TBW, E (TBW-E) [2] | LC50, CL [3] | LC50, LH [4] | LC50, MW [5]
CCc1cccc(N=C(OCc2cccc(Oc3ccccc3)c2)C(C)C)c1 [Compound 154] | 25 µg | 0.1% | 0.004% | > 0.05% | 
CCc1ccc(N=C(OCc2cccc(Oc3ccc(F)cc3)c2)C(C)C)cc1 [Compound 159] | 25 µg | 0.08% | 0.001% | 0.0025% | 
CCc1ccc(N=C(OCc2cccc(Oc3ccccc3)c2)C(C)C)cc1 [Compound 161] | 15 µg | 0.07% | 0.0014% | 0.002% | 
CCc1cccc(N=C(OCc2cccc(Oc3ccccc3)c2)C(C)(C)C)c1 [Compound 162] | > 100 µg | > 0.1% | 0.035% | > 0.05% | 
CC(C)C(=Nc1ccc2c(c1)CCC2)OCc1cccc(Oc2ccccc2)c1 [Compound 187] | 15 µg | > 0.1% | 0.0025% | 0.0025% | 
CCCC(=Nc1ccc2c(c1)OCO2)OCc1cccc(Oc2ccccc2)c1 [Compound 188] | 12 µg | > 0.1% | 0.002% | > 0.05% | 
Cc1ccc(Oc2cccc(COC(=Nc3ccc(F)c(Cl)c3)C(C)C)c2)cc1 [Compound 225] | > 100 µg | > 0.1% | 0.0025% | > 0.05% | 
CC(C)C(=Nc1ccc(C(C)C)cc1)OCc1cccc(Oc2ccc(F)cc2)c1 [Compound 228] | > 100 µg | > 0.1% | 0.0025% | > 0.05% | 
CC(C)C(=Nc1ccc2c(c1)OC(C)(C)O2)OCc1ccc(F)c(Oc2ccccc2)c1 [Compound 242] | < 100 µg | > 0.1% | 0.00025% | > 0.05% | 
CC(C)C(=Nc1ccc(Br)c(F)c1)OCc1cccc(Oc2ccc(Cl)cc2)n1 [Compound 551] | < 100 µg | 0.035% | 0.00075% |  | > 0.01%
CCc1ccc(N=C(OCc2cccc(Oc3ccc(Cl)cc3)n2)C(C)C)cc1 [Compound 552] | > 100 µg | > 0.1% | 0.0016% |  | > 0.01%
CC(C)C(=Nc1ccc(Cl)cc1)OCc1cccc(Oc2ccccc2)n1 [Compound 553] | < 100 µg | 0.1% | < 0.1% |  | > 0.01%
CC(C)C(=Nc1ccc(Cl)cc1)OCc1cccc(Oc2ccc(Cl)cc2)n1 [Compound 554] | > 100 µg | 0.04% | 0.00075% |  | > 0.01%
CC(C)C(=Nc1ccc(Cl)c(C(F)(F)F)c1)OCc1cccc(Oc2ccccc2)n1 [Compound 555] | < 100 µg | > 0.1% | 0.002% |  | > 0.01%
CC(C)C(=Nc1ccc2c(c1)OC(F)(F)O2)OCc1cccc(Oc2ccccc2)n1 [Compound 556] | < 100 µg | 0.04% | 0.0007% |  | > 0.01%
CC(C)C(=Nc1cccc(Br)c1)OCc1cccc(Oc2ccc(Cl)cc2)n1 [Compound 557] | < 100 µg | > 0.1% | 0.0004% |  | > 0.01%
CC(C)C(=Nc1ccc(F)c(Br)c1)OCc1cccc(Oc2ccccc2)n1 [Compound 558] | < 100 µg | > 0.1% | 0.00045% |  | > 0.01%
CC(C)C(=Nc1ccc(F)c(F)c1)OCc1cccc(Oc2ccc(Cl)cc2)n1 [Compound 559] | < 100 µg | 0.017% | 0.00027% |  | > 0.01%
C=C(C)C(=Nc1ccc(C(F)(F)F)cc1)OCc1cccc(Oc2ccc(Cl)cc2)n1 [Compound 560] | < 100 µg | < 0.1% | 0.0015% |  | > 0.01%
